Results from patent publication US12527788B2, “Defining RNA-small molecule affinity landscapes enables design of a small molecule inhibitor of an oncogenic non-coding RNA” (University of Florida Research Foundation, Incorporated, priority 2017, dated 2026).
Entries after “also recorded” stand apart in the source; their conditions may differ.

What was measured:
[1] = biological target: RNA3 (G bulge of the miR-17 and miR-20a precursors); test: Fluorescence-based binding affinity measurement; design: species or system human
Protocol: (§1) FIG. 7: Secondary structures of the nucleic acids to which the binding of small molecule 4 was assessed. […] RNA1 contains the U bulge present in the Dicer processing site common to miR-17, -18a and -20a. RNA2 contains the A bulge that is present in miR-18a. RNA3 contains the G bulge present in miR-17 and miR-20a. Binding affinities (Kd's) are indicated in parentheses and are reported in micromolar.
(§2) Mutation of the U bulge to an AU pair (RNAC) eliminates binding (Kd>100 μM).
(§3) Binding Affinity Measurements: An in solution, fluorescence-based assay was used to determine binding affinities by monitoring the change in fluorescence intensity of 1-FL (or 2-FL/3-FL/4-FL) as a function of RNA concentration as described previously.^18 Briefly, the RNA of interest was folded in 1× Folding Buffer (8 mM Na2HPO4, pH 7.0, 185 mM NaCl and 1 mM EDTA) by heating at 60° C. for 5 min followed by slowly cooling to room temperature on the bench top. Then, the FL-conjugated compound was added into the RNA solution to a final concentration of 100 nM. Serial dilutions were then completed using 1× Folding Buffer supplemented with 100 nM FL-conjugated compound. The solutions were incubated at room temperature for 30 min and then transferred to a well of a black 384-well plate. Fluorescence intensity was measured using a Bio-Tek FL×800 plate reader with an excitation wavelength of 485/20 nm and an emission wavelength of 528/20 nm. The change in fluorescence intensity as a function of the concentration of RNA was fit to equation 3:^9 I=I0+0.5 Δε{([FL]0+[RNA]0 +Kd)−(([FL]0+[RNA]0+Kd)^2−4[FL]0[RNA]0)^1/2} (3) where I is the observed fluorescence intensity; I0 is the fluorescence intensity in the absence of RNA; Δε is the difference between the fluorescence intensity in the absence of RNA and in the presence of infinite RNA concentration; [FL]0 is the concentration of compound; [RNA]0 is the concentration of the selected RNA; and Kd is the dissociation constant.

[2] = biological target: RNA2 (A bulge of the miR-18a precursor); test: Fluorescence-based binding affinity measurement; design: species or system human
Protocol: as §1, §2, §3

[3] = biological target: RNA1 (5′G_U/3′CUA U bulge of Dicer sites in miR-17, -18a and -20a); test: Fluorescence-based binding affinity measurement; design: species or system human
Protocol: as §1, §2, §3

miR-19b = test: RT-qPCR of mature miRNA levels in DU145 cells; type: cell-based, human
Protocol: (§4) In particular, the mature levels of each miRNA in the cluster were studied by RT-qPCR. In agreement with our in vitro Dicer processing studies (FIG. 8A and Figures S-58-S-62), 4 decreases the amount of mature miR-17, -18a, and -20a at low micromolar concentrations with an IC50 of ˜10 µM, but has no effect on miR-19a, -19b, and -92a (FIG. 8B).
(§5) Cell Culture: DU145 cells were cultured in growth medium (Roswell Park Memorial Institute medium (RPMI) supplemented with 10% fetal bovine serum (FBS)) at 37° C. and 5% CO2
(§6) Total RNA was extracted from cells using a Quick-RNA Miniprep Kit (Zymo Research) per the manufacturer's protocol. Approximately 200 ng of total RNA was used in reverse transcription (RT) reactions, which were completed using a miScript II RT kit (Qiagen) per the manufacturer's protocol. RT-qPCR was performed on a 7900HT Fast Real Time PCR System (Applied Biosystem) using power SYBR Green Master Mix (Applied Biosystems). All primer sets were purchased from Integrated DNA Technologies, Inc. (IDT) or Eurofins (Table S1). The expression levels of mature miRNAs were normalized to U6 small nuclear RNA or 18s rRNA.

miR-19a = test: RT-qPCR of mature miRNA levels in DU145 cells; type: cell-based, human
Protocol: as §4, §5, §6

miR-92a = test: RT-qPCR of mature miRNA levels in DU145 cells; type: cell-based, human
Protocol: as §4, §5, §6

pre-miR-17 = test: In vitro Dicer inhibition assay; type: biochemical, human; details: low micromolar concentrations
Protocol: (§7) Initial studies were completed in vitro to determine if compound 4 (Targapremir-18a) inhibits Dicer processing of each miRNA separately in the miR-17-92 cluster using radioactively labeled RNA (FIG. 8A). […] Thus, inhibition of Dicer processing by 4 is selective for miR-17, -18a, and -20a and non-selective inhibition of Dicer processing is not observed.
(§8) Dicer Inhibition Assay: The template used for pre-miR-18a (5′-[…] GCTCCTTCTGGCA) (SEQ ID NO: 41) was PCR-amplified in 1×PCR Buffer, 2 μM forward primer (5′-[…]-AAGGTGCATCTAGTGCAGA) (SEQ ID NO: 42), 2 μM reverse primer (5′-[…]) (SEQ ID NO: 43), 4.25 mM MgCl2, 330 μM dNTPs, and 2 μL of Taq DNA polymerase in a 50 μL reaction. Cycling conditions were 95° C. for 30 s, 55° C. for 30 s, and 72° C. for 60 s. […] The samples was then supplemented with 1 mM ATP and 2.5 mM MgCl2. Serially diluted concentrations of 4 were added and the samples were incubated at room temperature for 15 min. Next, 0.005 units/μL of recombinant human Dicer (Genlantis) were added followed by incubation at 37° C. overnight. Reactions were stopped by adding the manufacturer's supplied stop solution.
(§9) A T1 ladder (cleaves G residues) was generated by heating the RNA in 1×RNA Sequencing Buffer (20 mM sodium citrate, pH 5.0, 1 mM EDTA, and 7 M urea) at 55° C. for 10 min followed by slowly cooling to room temperature. RNase T1 was then added to a final concentration of 3, 0.3, 0.03 units/μL and the solution was incubated at room temperature for 20 min. An RNA hydrolysis ladder was generated by incubating RNA in 1×RNA hydrolysis buffer (50 mM NaHCO3, pH 9.4, and 1 mM EDTA) at 95° C. for 5 min. In all cases, cleavage products were separated on a denaturing 15% polyacrylamide gel and imaged using a Bio-Rad PMI phosphorimager.

pre-miR-18a = test: In vitro Dicer inhibition assay; type: biochemical, human; details: low micromolar concentrations
Protocol: as §7, §8, §9

pre-miR-20 = test: In vitro Dicer inhibition assay; type: biochemical, human; details: low micromolar concentrations
Protocol: as §7, §8, §9

pre-miR-19a = test: In vitro Dicer inhibition assay; type: biochemical, human
Protocol: as §7, §8, §9

pre-miR-19b = test: In vitro Dicer inhibition assay; type: biochemical, human
Protocol: as §7, §8, §9

With `CN1CCN(c2ccc(-c3ccc4nc(-c5cc(C(C)(C)C)c(OCCCC(=O)NCCCN=[N+]=[N-])c(C(C)(C)C)c5)[nH]c4c3)cc2)CC1` [Compound 4] the Kd [1] was 40 ± 6 µM, the Kd [2] was 32 ± 5 µM and the Kd [3] was 30 ± 2 µM. The “Effect on mature miRNA level” value (miR-19b) was “no effect”, the “Effect on mature miRNA level” value (miR-19a) was “no effect” and the “Effect on mature miRNA level” value (miR-92a) was “no effect”. The “Inhibition of Dicer processing” value (pre-miR-17) was “inhibited Dicer processing”, the “Inhibition of Dicer processing” value (pre-miR-18a) was “inhibits in vitro Dicer processing; also recorded: inhibited Dicer processing” and the “Inhibition of Dicer processing” value (pre-miR-20) was “inhibited Dicer processing”. The “Effect on Dicer processing” value (pre-miR-19a) was “no effect” and the “Effect on Dicer processing” value (pre-miR-19b) was “no effect”.
